Assays:
[1] = system: Staph aureus, MRSA, Klebsiella pneumoniae, E. coli, Proteus vulgaris, Pseudomonas aeruginosa, Enterobacter cloacae, Acinetobacter lwoffi, Acinetobacter …; test: In-vitro Petri dish comparison of Lots and control antibiotics (FIGS. 16-36); assay type: cell-based; conditions: identical size drops (diameters of ZOA); FIGS. 16-25
HL-60 cells = conditions: cited from earlier work; for amount at which desired cellular responses occurred: priming experiments
[2] = system: mouse embryonic stem cells and embryoid bodies; conditions: cited from earlier work
[3] = Study I: vancomycin peaks and troughs in patient; assay type: in vivo, human; conditions: 1.5 g BID, Q12, seven doses
Description: Fri 2/5: Detection of a Strep-A strain, confirmed by culture study. Shifted from gentamycin to vancomycin 1.5 g BID, Q12. Patient was kept on this dosing regimen until 2/8 (date of discharge from hospital).
Mon 2/8: Patient received the last of seven doses of vancomycin. Throughout all of this their peaks (within 1 hour of receiving vancomycin) and troughs (before receiving vancomycin) were normal (ranges not noted here). Patient was discharged from the hospital on this date.

MRSA = conditions: IV, 8 days following admission
Description: In this embodiment, the additional ingredient to hasten a third therapeutic tissue healing effect was added. This embodiment used vitamin D in a small but medically efficacious amount.

| Compound | zones of inhibition of control active agents compared with the formulations of the invention [1] | amount at which desired cellular responses occurred (HL-60 cells) | further results |
| --- | --- | --- | --- |
| CO[C@@]1(NC(=O)Cc2cccs2)C(=O)N2C(C(=O)O)=C(COC(N)=O)CS[C@@H]21 [Cefoxicillin] | considerably reduced zones of inhibition |  |  |
| C[S+](C)[O-] [DMSO, dimethyl sulfoxide] |  | less than 2% | subsequent retinoid-induced TGM2 expression (HL-60 cells; priming of the cells by pretreatment): increases; effect on epigenetic profiles [2]: upregulation of mRNA and protein expression |
| CC[C@H]1OC(=O)[C@H](C)[C@@H](O[C@H]2C[C@@](C)(OC)[C@@H](O)[C@H](C)O2)[C@H](C)[C@@H](O[C@@H]2O[C@H](C)C[C@H](N(C)C)[C@H]2O)[C@](C)(O)C[C@@H](C)C(=O)[C@H](C)[C@@H](O)[C@]1(C)O [Erythromycin] | considerably reduced zones of inhibition |  |  |
| CN[C@H](CC(C)C)C(=O)N[C@H]1C(=O)N[C@@H](CC(N)=O)C(=O)N[C@H]2C(=O)N[C@H]3C(=O)N[C@H](C(=O)N[C@H](C(=O)O)c4cc(O)cc(O)c4-c4cc3ccc4O)[C@H](O)c3ccc(c(Cl)c3)Oc3cc2cc(c3O[C@@H]2O[C@H](CO)[C@@H](O)[C@H](O)[C@H]2O[C@H]2C[C@](C)(N)[C@H](O)[C@H](C)O2)Oc2ccc(cc2Cl)[C@H]1O [Vancomycin] | considerably reduced zones of inhibition |  | peaks (within 1 hour of receiving) and troughs (before receiving) [3]: normal; patient response to treatment (MRSA): did not respond |
| vitamin D |  | about 100 nM |  |

— patent publication US20120076742A1, “Topical drug delivery system with dual carriers” (priority 2010, published 2012)
